Where two headings read alike, the source gives them in different places.
Target: T1, HIV-1 protease (Q7S) (Human immunodeficiency virus type 1 group M subtype B, UniProt P04585, Q495S)
T1 construct: made in house
Experiment: HIV-1 Protease RET Assay
Type: biochemical
Experimental: Ki's for the inhibitors of HIV-1 protease were determined using a resonance energy transfer (RET) assay. […] This enzyme is first partially purified as inclusion bodies from cell lysate. It is then solublized in 8M urea and passed through a Q-Sepharose column (Pharmacia) for further purification. To refold this protein, samples containing Q7S is dialyzed into 50 mM sodium phosphate pH 7.0, 50 mM NaCl, 10 mM DTT, and 10% glycerol.
The commercially available peptide substrate (Molecular Probes Cat. # H-2930) RE(EDANS)SQNYPIVQK(DABCYL)R is used to assess activity and Ki's. This peptide is cleaved quantitatively by HIV-1 Pr at the Tyr-Pro bond. The EDANS fluorophore absorbs at 340 nm and emits at 490 nm. The reaction is carried out in a 96 well plate in a total volume of 100 μL and is run for 12 minutes at 37 C under steady-state conditions with 5 μM substrate and 2 nM active dimer enzyme concentration. The literature value Km for this substrate and enzyme is 103+/−8 μM (See Matayoshi, et al., “Novel Fluorogenic Substrates for Assaying Retroviral Proteases by Resonance Energy Transfer,” Science 247, 954 (1990)). The buffer for this reaction is 0.1M sodium acetate pH 4.8, 1M NaCl, 1 mM EDTA, 5 mM dithiothreitol, 10% dimethyl sulfoxide and 1 mg/ml bovine serum albumin. Inhibition curves are fit using the Morrison tight binding equation.

[1] = Ki, table of drawn compounds, unit inferred
[2] = Ave. Ki (nM), RET assay, Q7S enzyme, pH 4.8, 37 C
[3] = RET assay, Q7S enzyme, pH 4.8, 37 C, read-out: Ave. Ki

SMILES: Cc1ccccc1CNC(=O)[C@H]1N(C(=O)[C@@H](O)[C@H](Cc2ccccc2)NC(=O)c2cccnc2Cl)CSC1(C)C
- Ki [1]: 0.75 nM

SMILES: COc1cccc(C(=O)[C@H]2N(C(=O)[C@@H](O)[C@H](Cc3ccccc3)NC(=O)c3cccc(O)c3C)CSC2(C)C)c1
- Ki [1]: 7.4 nM

SMILES: C=CCNC(=O)[C@H]1N(C(=O)[C@@H](O)[C@H](Cc2ccccc2)NC(=O)c2cccnc2C)CSC1(C)C [Example B49, N-[(1S,2S)-3-(4-Allylcarbamoyl-5,5-dimethyl-thiazolidin-3-yl)-1-benzyl-2-hydroxy-3-oxo-propyl]-2-methyl-nicotinamide]
- Ki [2]: 17.2 nM

SMILES: Cc1ccccc1CNC(=O)[C@H]1N(C(=O)[C@@H](O)[C@H](Cc2ccccc2)NC(=O)Cc2c(F)cccc2F)CSC1(C)C
- Ki (table of drawn compounds, unit inferred, read-out: Ki): 72 nM

SMILES: Cc1c(O)cccc1C(=O)N[C@@H](Cc1ccccc1)[C@H](O)C(=O)N1CSC(C)(C)[C@H]1C(=O)NCc1cccc(C(F)(F)F)c1F
- Ki [1]: 62 nM

SMILES: Cc1c(O)cccc1C(=O)N[C@@H](Cc1ccccc1)[C@H](O)C(=O)N1CSC(C)(C)[C@H]1C(=O)NCc1ccc2c(c1)OC(F)(F)O2 [Example A48, (R)-3-((2S,3S)-2-Hydroxy-3-{[1-(3-hydroxy-2-methyl-phenyl)-methanoyl]-amino}-4-phenyl-butanoyl)-5,5-dimethyl-thiazolidine-4-carboxylic acid (2,2-difluoro-benzo[1,3]dioxol-5-ylmethyl)-amide]
- Ki [3]: 0.19 nM

SMILES: Cc1ccccc1CNC(=O)[C@H]1N(C(=O)[C@@H](O)[C@H](Cc2ccccc2)NC(=O)c2ccnc(Cl)c2Cl)CSC1(C)C [Example B41, {(1S,2S)-1-Benzyl-3-[(R)-5,5-dimethyl-4-(2-methyl-benzylcarbamoyl)-thiazolidin-3-yl]-2-hydroxy-3-oxo-propyl}-2,3-dichloro-isonicotinamide]
- Ki [2]: 0.15 nM

SMILES: CCC(C)CNC(=O)[C@H]1N(C(=O)[C@@H](O)[C@H](Cc2ccccc2)NC(=O)c2cccc(O)c2C)CSC1(C)C (stereo partly shown)
- Ki [1]: ≤ 0.1 nM

SMILES: Cc1ccccc1CNC(=O)[C@@H]1[C@@H](C)OCN1C(=O)[C@@H](O)[C@H](Cc1ccccc1)NC(=O)c1cccc(O)c1C [Example C5, (4S,5R)-3-((2S,3S)-2-Hydroxy-3-{[1-(3-hydroxy-2-methyl-phenyl)-methanoyl]-amino}-4-phenyl-butanoyl)-5-methyl-oxazolidine-4-carboxylic acid 2-methyl-benzylamide]
- Ki [2]: 3.2 nM

SMILES: Cc1c(O)cccc1C(=O)N[C@@H](Cc1ccccc1)[C@H](O)C(=O)N1CSC(C)(C)C1C(=O)NCCc1ccc(O)cc1 (stereo partly shown)
- Ki [1]: 13.1 nM

SMILES: Cc1ccccc1CNC(=O)[C@@H]1CC(F)(F)CN1C(=O)[C@@H](O)[C@H](Cc1ccccc1)NC(=O)c1cccc(O)c1C [Example C1, (S)-4,4-Difluoro-1-[(2S,3S)-2-hydroxy-3-(3-hydroxy-2-methyl-benzoylamino)-4-phenyl-butyryl]-pyrrolidine-2-carboxylic acid 2-methyl-benzylamide.]
- Ki [3]: 0.38 nM

SMILES: Cc1ccccc1CNC(=O)[C@H]1N(C(=O)[C@@H](O)[C@H](Cc2ccccc2)NC(=O)c2ccncc2Cl)CSC1(C)C [Example B42, {(1S,2S)-1-Benzyl-3-[(R)-5,5-dimethyl-4-(2-methyl-benzylcarbamoyl)-thiazolidin-3-yl]-2-hydroxy-3-oxo-propyl}-3-chloro-isonicotinamide]
- Ki [2]: 0.73 nM

SMILES: CNCCNC(=O)[C@H]1N(C(=O)[C@@H](O)[C@H](Cc2ccccc2)NC(=O)c2cccc(O)c2C)CSC1(C)C [Example A52, 3-((2S,3S)-2-Hydroxy-3-{[1-(3-hydroxy-2-methyl-phenyl)-methanoyl]-amino}-4-phenyl-butanoyl)-5,5-dimethyl-thiazolidine-4-carboxylic acid (2-methylamino-ethyl)-amide]
- Ki [2]: 37 nM

SMILES: Cc1ccccc1CNC(=O)C1N(C(=O)[C@@H](O)[C@H](Cc2ccccc2)NC(=O)c2ccccn2)CSC1(C)C (stereo partly drawn) [Example B45, Pyridine-2-carboxylic acid {(1S,2S)-1-benzyl-3-[5,5-dimethyl-4-(2-methyl-benzylcarbamoyl)-thiazolidin-3-yl]-2-hydroxy-3-oxo-propyl}-amide]
- Ki [2]: 19.7 nM

SMILES: C=CCCC(=O)[C@H]1N(C(=O)[C@@H](O)[C@H](Cc2ccccc2)NC(=O)c2cccc(O)c2C)CSC1(C)C [Example D1, N-[(1S,2S)-1-Benzyl-3-((R)-5,5-dimethyl-4-pent-4-enoyl-thiazolidin-3-yl)-2-hydroxy-3-oxo-propyl]-3-hydroxy-2-methyl-benzamide]
- Ki [3]: < 0.01 nM

SMILES: Cc1ccccc1CNC(=O)[C@H]1N(C(=O)[C@@H](O)[C@H](Cc2ccccc2)NC(=O)C2CCCC2)CSC1(C)C
- Ki [1]: 12.1 nM

SMILES: COc1cccc(CNC(=O)[C@H]2N(C(=O)[C@@H](O)[C@H](Cc3ccccc3)NC(=O)c3cccc(F)c3C)CSC2(C)C)c1 [Example B32, (R)-3-((2S,3S)-3-{[1-(3-Fluoro-2-methyl-phenyl)-methanoyl]-amino}-2-hydroxy-4-phenyl-butanoyl)-5,5-dimethyl-thiazolidine-4-carboxylic acid 3-methoxy-benzylamide]
- Ki [2]: 4.9 nM

SMILES: Cc1noc(C)c1C(=O)NC(Cc1ccccc1)C(O)C(=O)N1CSC(C)(C)C1C(=O)NCc1ccccc1C(F)(F)F (stereo not shown) [Example B27, 3,5-Dimethyl-isoxazole-4-carboxylic acid {1-benzyl-3-[5,5-dimethyl-4-(2-trifluoromethyl-benzylcarbamoyl)-thiazolidin-3-yl]-2-hydroxy-3-oxo-propyl}-amide]
- Ki [2]: 3.5 nM

SMILES: Cc1ccccc1CNC(=O)[C@H]1N(C(=O)[C@@H](O)[C@H](Cc2ccccc2)NC(=O)N2CC[C@@H](O)C2)CSC1(C)C [Example B1, 3-(2-hydroxy-3-{[1-(3-hydroxy-pyrrolidin-yl)-methanoyl]-amino}-4-phenyl-butanoyl)-5,5-dimethyl-thiazolidine-4-carboxylic acid-2-methyl-benzylamide]
- Ki [3]: 2.5 nM

SMILES: Cc1cc(O)c(C)c(C(=O)N[C@@H](Cc2ccccc2)[C@H](O)C(=O)N2CSC(C)(C)[C@H]2C(=O)NCc2ccccc2C)c1 [Example B43, (R)-3-[(2S,3S)-2-Hydroxy-3-(3-hydroxy-2,5-dimethyl-benzoylamino)-4-phenyl-butyryl]-5,5-dimethyl-thiazolidine-4-carboxylic acid 2-methyl-benzylamide]
- Ki [2]: 0.2 nM

SMILES: Cc1c(O)cccc1C(=O)N[C@@H](Cc1ccccc1)[C@H](O)C(=O)N1COC(C)(C)[C@H]1C(=O)NCC#N [Example C10, (S)-3-((2S,3S)-2-Hydroxy-3-{[1-(3-hydroxy-2-methyl-phenyl)-methanoyl]-amino}-4-phenyl-butanoyl)-5,5-dimethyl-oxazolidine-4-carboxylic acid cyanomethyl-amide]
- Ki [2]: 36 nM

SMILES: Cc1ccccc1CNC(=O)C1N(C(=O)[C@@H](O)[C@H](Cc2ccccc2)NC(=O)c2ccc(O)cn2)CSC1(C)C (stereo partly drawn) [Example B46, Pyridine-2–5-hydroxy-carboxylic acid{(1S,2S)-1-benzyl-3-[5,5-dimethyl-4-(2-methyl-benzylcarbamoyl)-thiazolidin-3-yl]-2-hydroxy-3-oxo-propyl}-amide]
- Ki [3]: 12.5 nM

SMILES: Cc1ccccc1CNC(=O)[C@H]1N(C(=O)[C@@H](O)[C@H](Cc2ccccc2)NC(=O)c2ccc(O)cc2C)CSC1(C)C [Example B39, (R)-3-[(2S,3S)-2-Hydroxy-3-(4-hydroxy-2-methyl-benzoylamino)-4-phenyl-butyryl]-5,5-dimethyl-thiazolidine-4-carboxylic acid 2-methyl-benzylamide]
- Ki [2]: 0.16 nM

SMILES: Cc1ccccc1CNC(=O)[C@H]1N(C(=O)[C@@H](O)[C@H](Cc2ccccc2)NC(=O)c2cccnc2)CSC1(C)C [Example B47, N-{(1S,2S)-1-Benzyl-3-[5,5-dimethyl-4-(2-methyl-benzylcarbamoyl)-thiazolidin-3-yl]-2-hydroxy-3-oxo-propyl}-nicotinamide]
- Ki [2]: 6.9 nM

SMILES: Cc1c(O)cccc1C(=O)N[C@@H](Cc1ccccc1)[C@H](O)C(=O)N1CSC(C)(C)[C@H]1C(=O)NCC(C)C
- Ki [1]: ≤ 0.1 nM

SMILES: CCCNC(=O)[C@H]1N(C(=O)[C@@H](O)[C@H](Cc2ccccc2)NC(=O)c2cccc(O)c2C)COC1(C)C [Example C7, (S)-3-((2S,3S)-2-Hydroxy-3-{[1-(3-hydroxy-2-methyl-phenyl)-methanoyl]-amino}-4-phenyl-butanoyl)-5,5-dimethyl-oxazolidine-4-carboxylic acid propylamide]
- Ki [2]: 7.9 nM

SMILES: Cc1c(O)cccc1C(=O)N[C@@H](Cc1ccccc1)[C@H](O)C(=O)N1CSC(C)(C)[C@H]1C(=O)NCc1ccc2c(c1)OCO2 [Example A22, 3-((2S,3S)-2-Hydroxy-3-{[1-(3-hydroxy-2-methyl-phenyl)-methanoyl]-amino}-4-phenyl-butanoyl)-5,5-dimethyl-thiazolidine-4-carboxylic acid (benzo[1,3]dioxol-5-ylmethyl)-amide]
- Ki [3]: 0.32 nM

SMILES: Cc1ccccc1CNC(=O)[C@H]1N(C(=O)[C@@H](O)[C@H](Cc2ccccc2)NC(=O)C2=CCCC2)CSC1(C)C
- Ki [1]: 3.4 nM
